Test system: Genes belonging to other category
Experiment: DNA chip mRNA expression in yeast, genes belonging to other category (Table 9)
Assay type: cell-based, Saccharomyces cerevisiae S288C
Outline: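 Values are treated/untreated fluorescence ratios from a whole-genome yeast DNA chip hybridized over 12 hours at 65° C with Cy3- or Cy5-labelled cDNA from poly(A) mRNA. Log-phase S288C yeast in YPD at 25° C had received a single toxic chemical for two hours, dosed to slow growth without killing.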

Measured: The level of expressed mRNA in the presence of chemical substance/The level of expressed mRNA in the absence of chemical substance

CN(C)C(=S)SSC(=S)N(C)C [(10), Tetramethylthiuram disulfide]
0.3: yeast gene YEL042W
0.6: yeast gene YDR084C | yeast gene YHR004C | yeast gene YIL140W
0.7: yeast gene YBR010W | yeast gene YJL073W | yeast gene YJR004C | yeast gene YLR391W | yeast gene YNL139C
4.0: yeast gene YNL006W
1.7: yeast gene YGL229C | yeast gene YMR276W | yeast gene YNL007C | yeast gene YPL154C
4.5: yeast gene YOR058C | yeast gene YOR383C
0.5: yeast gene YER107C | yeast gene YFL022C | yeast gene YJR123W | yeast gene YKL096W | yeast gene YLR340W | yeast gene YNL135C | yeast gene YOR181W | yeast gene YPL220W
0.9: yeast gene YCR088W | yeast gene YDR388W | yeast gene YGL158W | yeast gene YGR189C | yeast gene YHR142W | yeast gene YMR094W | yeast gene YMR219W | yeast gene YNR010W
0.4: yeast gene YKL008C | yeast gene YKL165C
2.2: yeast gene YGR136W | yeast gene YMR226C
3.3: yeast gene YKL039W | yeast gene YLR362W
5.8: yeast gene YNR069C
2.7: yeast gene YDL238C | yeast gene YDR104C | yeast gene YDR276C | yeast gene YDR515W | yeast gene YER012W | yeast gene YKR098C | yeast gene YMR314W | yeast gene YOL038W | yeast gene YPL230W | yeast gene YPR168W
1.5: yeast gene YBL005W-A | yeast gene YKL041W | yeast gene YKL139W | yeast gene YOR259C | yeast gene YPL109C
4.2: yeast gene YBR170C | yeast gene YEL012W | yeast gene YML130C
6.0: yeast gene YLR136C
3.6: yeast gene YOL164W
3.4: yeast gene YDR264C | yeast gene YMR004W
3.2: yeast gene YDR358W | yeast gene YGR248W | yeast gene YMR104C
16.3: yeast gene YCL027W
3.7: yeast gene YGL180W | yeast gene YPL149W
3.8: yeast gene YFL043C
2.6: yeast gene YBL041W | yeast gene YDR080W | yeast gene YFR004W | yeast gene YJL116C | yeast gene YJR058C | yeast gene YLR200W | yeast gene YLR266C | yeast gene YOR157C | yeast gene YPR081C
3.0: yeast gene YDL008W
1.3: yeast gene YCR062W | yeast gene YDR378C | yeast gene YER130C | yeast gene YIL034C | yeast gene YJL141C | yeast gene YLR429W
2.8: yeast gene YPR108W
2.9: yeast gene YOR185C | yeast gene YOR285W
2.1: yeast gene YCR004C | yeast gene YFR050C | yeast gene YKL117W | yeast gene YMR275C | yeast gene YNL333W
0.8: yeast gene YDR432W | yeast gene YER039C | yeast gene YOR355W
3.5: yeast gene YBR214W
2.0: yeast gene YDR427W | yeast gene YHR136C | yeast gene YHR161C | yeast gene YKL079W | yeast gene YKR014C | yeast gene YLR121C | yeast gene YNL093W | yeast gene YOR028C | yeast gene YPR103W
1.2: yeast gene YBR239C | yeast gene YCR071C | yeast gene YCR091W | yeast gene YER076C | yeast gene YGR120C
15.2: yeast gene YBL078C
8.3: yeast gene YLR327C
46.6: yeast gene YHR139C
0.2: yeast gene YIL123W
4.1: yeast gene YLR178C
1.4: yeast gene YAR009C | yeast gene YBL101C | yeast gene YCL033C | yeast gene YDR169C | yeast gene YJL035C | yeast gene YJR049C | yeast gene YKL013C | yeast gene YOR198C
1.6: yeast gene YBR286W | yeast gene YDR188W | yeast gene YDR315C | yeast gene YDR481C | yeast gene YFR014C | yeast gene YJL059W | yeast gene YKL193C | yeast gene YLR120C | yeast gene YLR356W | yeast gene YMR110C | yeast gene YNL083W | yeast gene YOR132W | yeast gene YPL020C
2.4: yeast gene YCL020W | yeast gene YDR055W | yeast gene YEL066W | yeast gene YKL007W | yeast gene YLR250W | yeast gene YMR255W
1.0: yeast gene YBR031W | yeast gene YBR201W | yeast gene YDR115W | yeast gene YDR329C | yeast gene YDR505C | yeast gene YER009W | yeast gene YLL050C | yeast gene YLR423C | yeast gene YMR214W | yeast gene YMR297W | yeast gene YOL013C | yeast gene YOR149C | yeast gene YOR288C | yeast gene YOR298W | yeast gene YPL001W | yeast gene YPL124W | yeast gene YPL177C
1.9: yeast gene YGR257C | yeast gene YOR036W | yeast gene YOR124C
1.8: yeast gene YBR290W | yeast gene YDR259C | yeast gene YFL028C | yeast gene YHR109W | yeast gene YKL171W | yeast gene YLL051C | yeast gene YOR117W | yeast gene YPR149W
6.9: yeast gene YGR213C
14.7: yeast gene YBL043W
2.3: yeast gene YDL097C | yeast gene YDR085C | yeast gene YGL185C | yeast gene YJR110W
1.1: yeast gene YAR010C | yeast gene YJR086W
7.2: yeast gene YHR071W
2.5: yeast gene YDR510W | yeast gene YOR261C | yeast gene YPL089C
3.9: yeast gene YJL089W

Reference: US8192962B2, “Processes for detecting toxic substances” (Daikin Industries, Ltd., priority 2001, dated 2012)
